The results in this text go back to patent US8188098B2, “GPR119 receptor agonists” (Hoffmann-La Roche Inc., priority 2008, dated 2012).

The test system of the first assay is C57B1/6J mice. As to the kind of experiment: oral glucose tolerance test (OGTT) in C57B1/6J mice. In kind it is in vivo. The following applies: 30 mg/kg oral gavage, 2 g/kg glucose bolus two hours after dosing; vs vehicle treated mice. The procedure: The in vivo activity of selected compounds of the invention was characterized using an oral glucose tolerance test in C57B1/6J mice.
C57B1/6J mice were obtained from Jackson Laboratory (Bar Harbor, Me.) and were maintained in a light-dark cycle with lights on from 0600-1800 hr. The mice were received at age nine weeks and given ad libitum access to diet (LabDiet 5001 chow, PMI Nutrition, Brentwood, Mo.), and were at age 10 weeks at the time of study The experiments were conducted during the light phase of the light-dark cycle. Mice (n=10) were weighed and fasted for a four hour period prior to treatment with GPR119 agonists or formulation vehicle via oral gavage. GPR119 agonists were formulated in Klucel vehicle (2% Klucel LF with 0.1% Tween 80, in water) at a concentration of 4.0 mg/mL and the mice were dosed with a 7.5 mL/kg volume to equal a 30 mg/kg dose. Two hours following dosing, the animals were given an oral glucose tolerance test (OGTT). For the OGTT, the animals were given a 2 g/kg glucose bolus via oral gavage. Blood glucose readings were made immediately prior to the glucose challenge, and 30, 60 and 120 minutes following. […] Area under the curve (AUC) for plots of blood glucose vs. time for the individual mice was calculated by the trapezoidal method. […]
With `CC(C)OC(=O)N1CCC(n2ncc3c(Oc4ccc(S(C)(=O)=O)cc4)ncnc32)CC1` [Example 21, 4-[4-(4-Methanesulfonyl-phenoxy)-pyrazolo[3,4-d]pyrimidin-1-yl]-piperidine-1-carboxylic acid isopropyl ester], the “decrease in mean baseline-subtracted AUC (blood glucose vs. time)” value was 44%.

A further assay concerns the target T1, GPR119 receptor (Mesocricetus auratus, UniProt A0A1U8CD06).
T1 construct: which endogenously express the GPR119 receptor; host or cells: HIT-T15 hamster pancreatic islet cells
T1 sequence (A0A1U8CD06 1-334): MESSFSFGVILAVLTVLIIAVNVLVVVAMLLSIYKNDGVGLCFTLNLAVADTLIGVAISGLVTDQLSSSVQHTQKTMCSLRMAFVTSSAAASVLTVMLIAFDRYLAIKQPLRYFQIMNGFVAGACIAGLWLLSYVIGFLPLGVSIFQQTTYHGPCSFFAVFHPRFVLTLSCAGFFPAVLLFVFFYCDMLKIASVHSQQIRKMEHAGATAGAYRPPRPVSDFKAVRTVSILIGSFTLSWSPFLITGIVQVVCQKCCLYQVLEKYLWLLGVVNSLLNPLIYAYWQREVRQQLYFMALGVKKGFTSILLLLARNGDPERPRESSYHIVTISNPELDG
Description: cAMP assay in HIT-T15 hamster pancreatic islet cells (functional agonist activity). The assay is classed as cell-based. The following applies: HIT-T15 cells endogenously expressing GPR119; 30 min at 25° C.; intracellular cAMP. The procedure, abridged: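 cAMP immunoassay with luminescent read-out, EC50 fitted, after a 30 min, 25° C agonist incubation in HIT-T15 hamster islet cells expressing GPR119 natively. Medium contained 0.5 mM IBMX and 0.5 mg/ml BSA; 9000 cells/well.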
Broadly, the EC50 is the concentration needed to bring the measured effect to its halfway point. In turn, `CC(C)OC(=O)N1CCC(n2ncc3c(Oc4ccc(S(C)(=O)=O)cc4)ncnc32)CC1` [Example 21, 4-[4-(4-Methanesulfonyl-phenoxy)-pyrazolo[3,4-d]pyrimidin-1-yl]-piperidine-1-carboxylic acid isopropyl ester] had an EC50 of 0.26 µM. Consider `Cc1nn(C2CCN(C(=O)OC(C)C)CC2)c2ncnc(Oc3cc(F)c(F)cc3F)c12` [Example 17, 4-[3-Methyl-4-(2,4,5-trifluoro-phenoxy)-pyrazolo[3,4-d]pyrimidin-1-yl]-piperidine-1-carboxylic acid isopropyl ester], for which the EC50 was found to be 0.7 µM.

The compound `CS(=O)(=O)c1ccc(Nc2ncnc3c2cnn3C2CCN(Cc3ccccc3)CC2)c(F)c1` [Example 11, [1-(1-Benzyl-piperidin-4-yl)-1H-pyrazolo[3,4-d]pyrimidin-4-yl]-(2-fluoro-4-methanesulfonylphenyl)-amine] came in with an EC50 of 2.5 µM.

On to `CS(=O)(=O)c1ccc(Oc2ncnc3c2cnn3C2CCN(C(=O)OCC(Cl)(Cl)Cl)CC2)cc1` [Example 115, 4-[4-(4-Methanesulfonyl-phenoxy)-pyrazolo[3,4-d]pyrimidin-1-yl]-piperidine-1-carboxylic acid 2,2,2-trichloro-ethyl ester], for which the 50% effective concentration (EC50) is 0.018 µM.

In turn, `CCOC(=O)N1CCC(n2ncc3c(Oc4ccc(S(C)(=O)=O)cc4)ncnc32)CC1` [Example 13, 4-[4-(4-Methanesulfonyl-phenoxy)-pyrazolo[3,4-d]pyrimidin-1-yl]-piperidine-1-carboxylic acid ethyl ester] had an EC50 of 0.65 µM. As for `CCOC(=O)N1CCC(n2ncc3c(Oc4ccc(S(C)(=O)=O)cc4F)ncnc32)CC1` [Example 14, 4-[4-(2-Fluoro-4-methanesulfonyl-phenoxy)-pyrazolo[3,4-d]pyrimidin-1-yl]-piperidine-1-carboxylic acid ethyl ester], the EC50 was determined as 0.14 µM.

Compound `CS(=O)(=O)c1ccc(Oc2ncnc3c2cnn3C2CCN(C(=O)c3cc(Cl)cc(Cl)c3)CC2)cc1` [Example 150, (3,5-Dichloro-phenyl)-{4-[4-(4-methanesulfonyl-phenoxy)-pyrazolo[3,4-d]pyrimidin-1-yl]-piperidin-1-yl}-methanone] returned an EC50 of 2.1 µM. Compared with the last compound, the EC50 is about 15-fold higher. On the same count and under the same terms, the value for `COc1ccc(Oc2ncnc3c2cnn3C2CCN(C(=O)OC(C)(C)C)CC2)c(OC)n1` [Example 95, 4-[4-(2,6-Dimethoxy-pyridin-3-yloxy)-pyrazolo[3,4-d]pyrimidin-1-yl]-piperidine-1-carboxylic acid tert-butyl ester] was 0.89 µM; that for `Cc1nc(-c2ccc(Oc3ncnc4c3cnn4C3CCN(C(=O)OC(C)(C)C)CC3)cc2)no1` [Example 85, 4-{4-[4-(5-Methyl-[1,2,4]oxadiazol-3-yl)-phenoxy]-pyrazolo[3,4-d]pyrimidin-1-yl}-piperidine-1-carboxylic acid tert-butyl ester] was 0.55 µM; that for `CC(C)Cc1cc(C(=O)N2CCC(n3ncc4c(Oc5ccc(S(C)(=O)=O)cc5)ncnc43)CC2)no1` [Example 154, (5-Isobutyl-isoxazol-3-yl)-{4-[4-(4-methanesulfonyl-phenoxy)-pyrazolo[3,4-d]pyrimidin-1-yl]-piperidin-1-yl}-methanone] was 0.36 µM. Same read-out and setting: the value for `Cc1nnnn1-c1ccc(Oc2ncnc3c2cnn3C2CCN(C(=O)OC(C)(C)C)CC2)cc1` [Example 84, 4-{4-[4-(5-Methyl-tetrazol-1-yl)-phenoxy]-pyrazolo[3,4-d]pyrimidin-1-yl}-piperidine-1-carboxylic acid tert-butyl ester] was 0.24 µM. Same read-out and setting: the value for `CS(=O)(=O)c1ccc(Oc2ncnc3c2cnn3C2CCN(Cc3ccc(C(F)(F)F)cc3)CC2)cc1` [Example 161, 4-(4-Methanesulfonyl-phenoxy)-1-[1-(4-trifluoromethyl-benzyl)-piperidin-4-yl]-1H-pyrazolo[3,4-d]pyrimidine] was 0.036 µM. `CC(C)(C)OC(=O)N1CCC(n2ncc3c(Oc4cc(F)cc(C(F)(F)F)c4)ncnc32)CC1` [Example 53, 4-[4-(3-Fluoro-5-trifluoromethyl-phenoxy)-pyrazolo[3,4-d]pyrimidin-1-yl]-piperidine-1-carboxylic acid tert-butyl ester] came in with a concentration for a half-maximal effect (EC50) of 0.49 µM. Compound `COC(=O)c1ccc(Oc2ncnc3c2cnn3C2CCN(C(=O)OC(C)(C)C)CC2)c(F)c1` [Example 63, 4-[4-(2-Fluoro-4-methoxycarbonyl-phenoxy)-pyrazolo[3,4-d]pyrimidin-1-yl]-piperidine-1-carboxylic acid tert-butyl ester] yielded an EC50 of 0.42 µM. The same measure, in the same setting: the value for `Cc1nnnn1-c1ccc(Oc2ncnc3c2cnn3C2CCN(C(=O)OC(C)C)CC2)cc1` [Example 26, 4-{4-[4-(5-Methyl-tetrazol-1-yl)-phenoxy]-pyrazolo[3,4-d]pyrimidin-1-yl}-piperidine-1-carboxylic acid isopropyl ester] was 0.95 µM; that for `CC(C)(C)OC(=O)N1CCC(n2ncc3c(Oc4ccc5c(c4)CCS5(=O)=O)ncnc32)CC1` [Example 79, 4-[4-(1,1-Dioxo-2,3-dihydro-1H-1λ^6-benzo[b]thiophen-5-yloxy)-pyrazolo[3,4-d]pyrimidin-1-yl]-piperidine-1-carboxylic acid tert-butyl ester] was 0.82 µM; that for `CC(=O)c1ccc(Oc2ncnc3c2cnn3C2CCN(C(=O)OC(C)(C)C)CC2)cc1` [Example 64, 4-[4-(4-Acetyl-phenoxy)-pyrazolo[3,4-d]pyrimidin-1-yl]-piperidine-1-carboxylic acid tert-butyl ester] was 0.15 µM. `CC(C)(C)OC(=O)N1CCC(n2ncc3c(Oc4ccc(S(C)(=O)=O)cc4)ncnc32)CC1` [Example 59, 4-[4-(4-Methanesulfonyl-phenoxy)-pyrazolo[3,4-d]pyrimidin-1-yl]-piperidine-1-carboxylic acid tert-butyl ester] registered a concentration giving a half-maximal response (EC50) of 0.043 µM. `N#Cc1ccccc1Oc1ncnc2c1cnn2C1CCN(C(=O)OC2CCCC2)CC1` [Example 118, 4-[4-(2-Cyano-phenoxy)-pyrazolo[3,4-d]pyrimidin-1-yl]-piperidine-1-carboxylic acid cyclopentyl ester]: the half-maximal effective concentration (EC50) came out at 0.34 µM. For the compound `CC(C)c1noc(C2CCC(n3ncc4c(Oc5ccc(S(C)(=O)=O)cc5F)ncnc43)CC2)n1` (stereo not drawn) [Example 131, 4-(2-Fluoro-4-methanesulfonyl-phenoxy)-1-[4-(3-isopropyl-[1,2,4]oxadiazol-5-yl)-cyclohexyl]-1H-pyrazolo[3,4-d]pyrimidine], the EC50 was 0.39 µM.
